Activity calls are given as the source filed them.

In assay [1] the target is Voltage-gated inwardly rectifying potassium channel KCNH2 (Homo sapiens, UniProt Q12809). Nature of the assay: concentration-dependent hERG rescue from blockers – cell-based, thallium flux, dose response (AID 2121). It is filed as ADME.
Assay [2] addresses 5-hydroxytryptamine receptor 1A (Homo sapiens, UniProt P08908). It is filed as functional.
The nature of assay [3]: NIH3T3 cell viability loss – ATP luminescence, mouse fibroblasts, counter-screen, dose response (AID 2010).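 Also: cells exposed to compound for about 90 hours before reading.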 The assay is classed as functional, cell-based.
Assay [4] is described as follows: cells.
Assay [5] can be described thus: Trypanosoma cruzi growth suppression in host cells – NIH3T3 host cells, beta-gal luminescence, confirmation (AID 2044).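 Also: intracellular parasites grown in NIH/3T3 mouse fibroblasts as host cells; luminescent beta-galactosidase reporter signal from transgenic T. cruzi replicating inside host cells; inhibitors lower the luminescence signal.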 It is filed as functional, cell-based.
Assay [6] has as its system BJ. Nature of the assay: BJ-TERT-LT-ST fibroblast viability loss – cell-based, RAS-independent, luminescence, dose response (AID 1935).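 Also: BJ fibroblasts immortalized with TERT plus LT and ST oncogenes.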 It is filed as functional. To be noted: Homo sapiens.
The subject of assay [7] is BJ. Nature of the assay: cells. It is filed as functional, cell-based. To be noted: Homo sapiens.
Assay [8] can be described thus: Luminescent dose response cell-based high throughput screening assay for inhibitors of the Janus kinase 2 mutant JAK2V617F. [Related pubchem assays: 1446 (Primary screen.), 1521 (Confirmation assay.), 1486 (Counter screen.)]. The assay is classed as functional.
The nature of assay [9]: DRD fibroblast viability loss – cell-based, non-viral oncogenic, luminescence, dose response (AID 1934). It is filed as functional. To be noted: Homo sapiens.
In assay [10] the test system is BJ. Nature of the assay: BJ-TERT fibroblast viability loss – cell-based, RAS-independent, luminescence, dose response (AID 1933). To be noted: Homo sapiens. It is filed as functional.
In assay [11] the test system is Vero. Nature of the assay: Vero cell viability after compound exposure – synthesized analogs, set II, cytotoxicity control for West Nile virus antiviral project, SAR follow-up (AID 2402). To be noted: Chlorocebus sabaeus. It is filed as functional.
The test system of assay [12] is Vero. Nature of the assay: Vero 76 cell viability after compound exposure – Vero 76 cells, synthesized analogs, cytotoxicity control for West Nile virus antiviral project, SAR follow-up (AID 2414). The assay is classed as functional. To be noted: Chlorocebus sabaeus.
Assay [13] concerns the target Diphosphomevalonate decarboxylase (Streptococcus pneumoniae serotype 2 (strain D39 / NCTC 7466), UniProt Q9FD53). Nature of the assay: diphosphomevalonate decarboxylase inhibitor confirmation – biochemical, cuvette format, coupled NADH fluorescence (AID 1028). It is filed as functional.
Assay [14] addresses Ubiquitin carboxyl-terminal hydrolase BAP1 (Homo sapiens, UniProt Q92560). In words: inhibition of BAP1 ubiquitin hydrolase activity – biochemical, dose response (AID 714). The assay is classed as functional.
For assay [15], the target named is Peroxisome proliferator-activated receptor gamma/Nuclear receptor coactivator 1 (Homo sapiens, UniProt P37231). Nature of the assay: TR-FRET dose response biochemical High Throughput Screening assay for agonists of the steroid receptor coactivator 1 (SRC-1) recruitment by the peroxisome proliferator-activated receptor gamma (PPAR gamma): non-selective agonists. [Related pubchem assays (depositor defined):AID1300, AID1808, AID504735, AID631]. It is filed as protein assay.

For assay [16], the target named is Peroxisome proliferator-activated receptor gamma/Nuclear receptor coactivator 3 (Homo sapiens, UniProt P37231). In words: TR-FRET dose response biochemical High Throughput Screening assay for agonists of the steroid receptor coactivator 3 (SRC-3) recruitment by the peroxisome proliferator-activated receptor gamma (PPAR gamma): non-selective agonists. [Related pubchem assays: 1301 (Confirmation screen.), 1048 (Primary screen.)]. It is filed as functional.

Assay [17] concerns the target Peroxisome proliferator-activated receptor gamma/Nuclear receptor coactivator 2 (Homo sapiens, UniProt P37231). In words: TR-FRET dose response biochemical High Throughput Screening assay for agonists of the steroid receptor coactivator 2 (SRC-2) recruitment by the peroxisome proliferator-activated receptor gamma (PPAR gamma): non-selective agonists. [Related pubchem assays: 1297, 1032 ]. It is filed as functional.

Assay [18] deals with INS1. In words: INS-1E survival protection against cytokine death – cell-based, luminescence, retest, dose response (AID 449756).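 Also: cell death triggered by IL-1 beta plus TNF-alpha plus IFN-gamma mixture; protective hits raise ATP signal compared with cytokine alone wells.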 The assay is classed as functional. To be noted: Rattus norvegicus.
In assay [19] the target is Nonstructural protein 1 (Influenza A virus, UniProt Q194T2). The assay is classed as functional, Influenza A virus (A/California/07/2009(H1N1)).
For assay [20], the target named is T1, Type-1 angiotensin II receptor (Homo sapiens, UniProt P30556).
T1 sequence (P30556 whole entry): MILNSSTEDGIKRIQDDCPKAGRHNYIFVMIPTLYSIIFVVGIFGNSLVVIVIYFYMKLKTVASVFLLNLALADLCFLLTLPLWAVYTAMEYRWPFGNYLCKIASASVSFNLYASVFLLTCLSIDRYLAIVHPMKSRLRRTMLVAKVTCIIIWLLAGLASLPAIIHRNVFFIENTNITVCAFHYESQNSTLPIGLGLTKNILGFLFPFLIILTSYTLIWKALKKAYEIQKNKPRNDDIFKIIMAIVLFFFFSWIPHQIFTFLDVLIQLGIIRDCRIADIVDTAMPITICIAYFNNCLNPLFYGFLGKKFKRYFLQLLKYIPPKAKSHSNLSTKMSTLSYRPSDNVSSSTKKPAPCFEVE
Nature of the assay: antagonism of angiotensin II type 1 receptor – cell-based, uHTS hits, selectivity assay for APJ receptor antagonist project, dose response (AID 463214).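 Also: antagonist potency against angiotensin II stimulated AT1 response.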 It is filed as functional.

For assay [21], the target named is Beta-galactosidase (Escherichia coli, UniProt Q8VNN2). In words: PubChem AID 485352. The assay is classed as functional.
The test system of assay [22] is Vero. In words: cells. The assay is classed as functional, cell-based. To be noted: Chlorocebus sabaeus.
For assay [23], the system named is BJ. In words: growth inhibition of engineered Ras-driven BJ cells – cell-based, alamar blue fluorescence, cherrypicked samples, dose response (AID 2631).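 Also: confirmatory dose-response assay in RAS-dependent BJ fibroblasts engineered with TERT, LT and ST, with cytotoxicity read by fluorescence.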 It is filed as functional. To be noted: Homo sapiens.
The subject of assay [24] is Vero. Nature of the assay: mammalian cell viability reduction – secondary assay, cytotoxicity control for West Nile virus antiviral project, dose response (AID 1650). It is filed as functional. To be noted: Chlorocebus sabaeus.
The subject of assay [25] is Vero. Nature of the assay: cells. The assay is classed as functional. To be noted: Chlorocebus sabaeus.
Assay [26] can be described thus: Luminescence-based dose response cell-based high throughput screening assay for cytotoxic compounds using the IEC-6 intestinal epithelial cell line. [Related pubchem assays: 1858 (Summary AID.), 1825 (Counterscreen.), 1907 (Confirmation screen.)]. The assay is classed as functional.
For assay [27], the target named is T2, Estrogen receptor (Homo sapiens, UniProt P03372).
T2 sequence (P03372 whole entry): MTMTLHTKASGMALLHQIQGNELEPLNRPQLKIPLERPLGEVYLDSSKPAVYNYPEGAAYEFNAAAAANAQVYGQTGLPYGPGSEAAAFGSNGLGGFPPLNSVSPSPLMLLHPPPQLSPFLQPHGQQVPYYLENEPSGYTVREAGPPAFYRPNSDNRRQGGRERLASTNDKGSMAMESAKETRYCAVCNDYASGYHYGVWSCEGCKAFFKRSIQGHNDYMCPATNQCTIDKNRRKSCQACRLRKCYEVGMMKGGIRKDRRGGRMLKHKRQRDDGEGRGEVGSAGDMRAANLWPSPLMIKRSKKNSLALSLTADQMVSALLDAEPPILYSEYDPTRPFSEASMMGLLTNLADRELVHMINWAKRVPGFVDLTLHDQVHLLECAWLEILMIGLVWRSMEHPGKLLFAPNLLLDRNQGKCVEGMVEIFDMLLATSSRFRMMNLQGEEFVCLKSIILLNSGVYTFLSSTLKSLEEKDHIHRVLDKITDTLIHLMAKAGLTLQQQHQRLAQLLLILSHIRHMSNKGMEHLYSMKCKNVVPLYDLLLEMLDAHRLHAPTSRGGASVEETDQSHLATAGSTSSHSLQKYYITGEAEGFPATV

The target in assay [28] is Estrogen receptor beta (Homo sapiens, UniProt Q92731).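 Also: recombinant ER-beta bound to coactivator SRC1 peptide in presence of estradiol agonist; inhibitors block coactivator peptide binding and lower the FRET signal.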

Chain of Peroxisome proliferator-activated receptor gamma/Nuclear receptor coactivator 2 (P37231 whole entry): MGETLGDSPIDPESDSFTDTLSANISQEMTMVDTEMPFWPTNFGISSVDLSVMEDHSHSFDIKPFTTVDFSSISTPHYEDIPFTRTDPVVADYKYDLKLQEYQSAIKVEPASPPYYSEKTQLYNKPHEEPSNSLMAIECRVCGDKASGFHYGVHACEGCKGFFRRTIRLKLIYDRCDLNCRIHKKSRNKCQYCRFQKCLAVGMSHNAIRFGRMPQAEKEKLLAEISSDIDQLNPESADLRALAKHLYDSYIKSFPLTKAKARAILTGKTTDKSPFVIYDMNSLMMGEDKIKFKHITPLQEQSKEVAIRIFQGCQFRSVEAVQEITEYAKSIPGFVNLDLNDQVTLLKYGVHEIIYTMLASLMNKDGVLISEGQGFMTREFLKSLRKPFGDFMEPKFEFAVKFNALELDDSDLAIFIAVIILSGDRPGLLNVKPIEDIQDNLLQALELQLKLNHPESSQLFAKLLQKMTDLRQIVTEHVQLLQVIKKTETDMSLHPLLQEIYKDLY
Chain of Peroxisome proliferator-activated receptor gamma/Nuclear receptor coactivator 2 (Q15596 whole entry, further chain): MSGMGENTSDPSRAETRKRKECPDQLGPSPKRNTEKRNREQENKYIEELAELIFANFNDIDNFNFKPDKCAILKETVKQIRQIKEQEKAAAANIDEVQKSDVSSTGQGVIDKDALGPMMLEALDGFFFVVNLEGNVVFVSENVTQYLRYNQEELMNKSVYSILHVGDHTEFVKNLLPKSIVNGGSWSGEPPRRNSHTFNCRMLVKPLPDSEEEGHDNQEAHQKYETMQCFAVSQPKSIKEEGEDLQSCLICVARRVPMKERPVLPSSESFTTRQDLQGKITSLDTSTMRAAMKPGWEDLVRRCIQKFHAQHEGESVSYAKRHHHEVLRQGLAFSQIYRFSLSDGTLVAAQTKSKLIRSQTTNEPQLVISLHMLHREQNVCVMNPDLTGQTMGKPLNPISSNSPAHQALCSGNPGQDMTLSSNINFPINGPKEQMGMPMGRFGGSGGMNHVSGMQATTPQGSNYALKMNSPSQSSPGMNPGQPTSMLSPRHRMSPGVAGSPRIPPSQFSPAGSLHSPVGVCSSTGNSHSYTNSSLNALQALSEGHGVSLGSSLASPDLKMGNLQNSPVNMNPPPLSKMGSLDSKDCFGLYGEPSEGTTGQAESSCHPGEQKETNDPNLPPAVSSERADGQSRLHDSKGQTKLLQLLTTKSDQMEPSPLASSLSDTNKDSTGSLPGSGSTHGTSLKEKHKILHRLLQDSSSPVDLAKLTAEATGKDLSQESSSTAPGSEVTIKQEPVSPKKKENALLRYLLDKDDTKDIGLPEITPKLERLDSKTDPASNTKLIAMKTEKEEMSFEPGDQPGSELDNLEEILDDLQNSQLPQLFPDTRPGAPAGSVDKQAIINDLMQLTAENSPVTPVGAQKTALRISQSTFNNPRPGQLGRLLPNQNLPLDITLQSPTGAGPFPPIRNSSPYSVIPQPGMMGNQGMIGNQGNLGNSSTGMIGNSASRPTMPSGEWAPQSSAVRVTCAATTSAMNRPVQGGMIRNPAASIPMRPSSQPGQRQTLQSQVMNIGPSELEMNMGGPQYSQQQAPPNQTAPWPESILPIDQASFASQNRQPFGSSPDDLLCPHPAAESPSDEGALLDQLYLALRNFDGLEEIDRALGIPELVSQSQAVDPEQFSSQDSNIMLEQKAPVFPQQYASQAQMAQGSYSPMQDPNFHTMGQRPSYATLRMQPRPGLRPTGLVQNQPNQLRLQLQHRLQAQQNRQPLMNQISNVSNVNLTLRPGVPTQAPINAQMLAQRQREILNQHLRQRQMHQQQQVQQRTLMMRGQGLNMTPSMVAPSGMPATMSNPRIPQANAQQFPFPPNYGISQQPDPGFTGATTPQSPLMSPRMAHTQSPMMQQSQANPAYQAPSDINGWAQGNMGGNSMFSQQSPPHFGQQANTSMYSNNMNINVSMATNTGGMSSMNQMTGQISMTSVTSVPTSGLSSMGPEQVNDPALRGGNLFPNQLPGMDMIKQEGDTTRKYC
Chain of Peroxisome proliferator-activated receptor gamma/Nuclear receptor coactivator 3 (P37231 whole entry): as the sequence (P37231 whole entry) above
Chain of Peroxisome proliferator-activated receptor gamma/Nuclear receptor coactivator 3 (Q9Y6Q9 whole entry, further chain): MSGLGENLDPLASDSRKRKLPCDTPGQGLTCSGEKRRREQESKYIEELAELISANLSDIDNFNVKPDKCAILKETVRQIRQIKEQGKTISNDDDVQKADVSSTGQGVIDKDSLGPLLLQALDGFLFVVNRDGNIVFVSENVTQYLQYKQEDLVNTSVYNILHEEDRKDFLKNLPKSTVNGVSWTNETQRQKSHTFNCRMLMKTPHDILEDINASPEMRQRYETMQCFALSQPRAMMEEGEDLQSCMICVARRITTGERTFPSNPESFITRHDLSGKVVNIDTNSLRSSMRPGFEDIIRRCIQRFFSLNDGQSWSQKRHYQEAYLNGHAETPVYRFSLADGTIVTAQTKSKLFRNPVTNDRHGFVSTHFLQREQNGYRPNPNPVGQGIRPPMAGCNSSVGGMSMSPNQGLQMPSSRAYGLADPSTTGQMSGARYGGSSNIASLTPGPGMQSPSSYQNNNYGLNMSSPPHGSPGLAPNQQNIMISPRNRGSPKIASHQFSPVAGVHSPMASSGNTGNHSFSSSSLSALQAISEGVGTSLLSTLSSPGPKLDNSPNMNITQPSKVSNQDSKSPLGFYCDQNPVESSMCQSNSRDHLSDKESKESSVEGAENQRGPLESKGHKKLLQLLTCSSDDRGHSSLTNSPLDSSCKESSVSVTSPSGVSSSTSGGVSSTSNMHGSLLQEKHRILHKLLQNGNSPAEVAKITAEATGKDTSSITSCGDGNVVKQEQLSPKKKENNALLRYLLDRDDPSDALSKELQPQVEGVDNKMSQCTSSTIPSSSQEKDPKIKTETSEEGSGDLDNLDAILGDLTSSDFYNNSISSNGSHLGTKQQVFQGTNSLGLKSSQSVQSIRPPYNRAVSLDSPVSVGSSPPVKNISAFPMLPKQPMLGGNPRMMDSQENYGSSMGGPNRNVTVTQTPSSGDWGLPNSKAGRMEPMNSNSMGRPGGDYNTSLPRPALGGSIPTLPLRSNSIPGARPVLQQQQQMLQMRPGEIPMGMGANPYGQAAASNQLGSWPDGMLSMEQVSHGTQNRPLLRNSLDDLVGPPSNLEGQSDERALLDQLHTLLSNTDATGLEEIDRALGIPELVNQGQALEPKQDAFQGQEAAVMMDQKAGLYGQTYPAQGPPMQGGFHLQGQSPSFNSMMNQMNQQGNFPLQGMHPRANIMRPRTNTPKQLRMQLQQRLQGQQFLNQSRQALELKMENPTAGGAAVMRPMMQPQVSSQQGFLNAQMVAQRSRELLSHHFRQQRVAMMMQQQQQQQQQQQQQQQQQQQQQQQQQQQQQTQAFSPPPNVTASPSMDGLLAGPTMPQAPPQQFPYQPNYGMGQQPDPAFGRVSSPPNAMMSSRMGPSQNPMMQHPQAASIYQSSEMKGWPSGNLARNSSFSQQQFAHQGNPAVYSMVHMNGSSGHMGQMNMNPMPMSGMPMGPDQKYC
Chain of Voltage-gated inwardly rectifying potassium channel KCNH2 (Q12809 whole entry): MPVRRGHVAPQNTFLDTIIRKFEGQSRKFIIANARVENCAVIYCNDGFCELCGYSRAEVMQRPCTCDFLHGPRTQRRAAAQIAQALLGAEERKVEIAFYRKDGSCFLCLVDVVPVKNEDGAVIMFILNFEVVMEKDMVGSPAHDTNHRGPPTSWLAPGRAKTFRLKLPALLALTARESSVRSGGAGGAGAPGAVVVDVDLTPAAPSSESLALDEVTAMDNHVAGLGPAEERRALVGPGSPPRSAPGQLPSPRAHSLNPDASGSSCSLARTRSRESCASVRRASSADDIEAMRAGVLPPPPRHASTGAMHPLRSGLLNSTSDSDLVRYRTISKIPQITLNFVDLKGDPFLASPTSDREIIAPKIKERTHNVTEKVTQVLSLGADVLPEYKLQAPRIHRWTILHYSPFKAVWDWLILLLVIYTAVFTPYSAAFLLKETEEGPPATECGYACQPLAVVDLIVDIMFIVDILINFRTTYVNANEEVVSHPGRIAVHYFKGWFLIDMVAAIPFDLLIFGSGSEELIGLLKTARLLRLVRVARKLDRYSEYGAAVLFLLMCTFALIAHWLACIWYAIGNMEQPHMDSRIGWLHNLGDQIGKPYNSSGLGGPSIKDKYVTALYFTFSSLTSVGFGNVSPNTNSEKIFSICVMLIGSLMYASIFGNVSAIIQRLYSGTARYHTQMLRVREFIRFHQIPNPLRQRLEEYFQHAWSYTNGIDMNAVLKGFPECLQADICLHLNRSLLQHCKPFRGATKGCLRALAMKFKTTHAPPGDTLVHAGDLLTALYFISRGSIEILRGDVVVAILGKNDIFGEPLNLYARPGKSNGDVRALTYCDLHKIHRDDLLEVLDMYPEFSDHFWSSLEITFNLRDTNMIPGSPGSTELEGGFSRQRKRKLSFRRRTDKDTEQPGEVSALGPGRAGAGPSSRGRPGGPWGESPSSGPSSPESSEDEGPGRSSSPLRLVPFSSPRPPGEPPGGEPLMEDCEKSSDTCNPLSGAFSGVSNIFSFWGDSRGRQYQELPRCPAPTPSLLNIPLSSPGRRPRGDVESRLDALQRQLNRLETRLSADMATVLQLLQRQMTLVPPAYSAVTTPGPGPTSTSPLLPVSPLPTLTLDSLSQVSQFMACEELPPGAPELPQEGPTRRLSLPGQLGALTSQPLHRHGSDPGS

Regarding `COc1ccc(OC)c(NC(=S)NC(=O)c2ccc(Br)o2)c1`, the EC50 in [1] is 0.01 µM (active).

Regarding `CC(CCc1ccccc1)NC(=O)CSc1nc(N)cc(N)n1` (configuration not stated), in assay [2], the concentration giving a half-maximal response (EC50) was > 50 µM (not active).

As to `CC(NS(=O)(=O)c1ccc(CCC(=O)N2CCN(C)CC2)cc1)c1ccccc1` (configuration not stated), the EC50 in assay [3] is > 60 µM (not active); in assay [4], 0.349 µM (active); in [5], < 0.1 µM (active).

With `Cc1nn(Cc2ccc(Cl)cc2Cl)c(C)c1NC(=O)CCl`, the EC50 in assay [6] is > 150 µM (inconclusive); in [7], 21.2 µM (active); in [9], 12.1 µM (active); in assay [10], 8.35 µM (active). Moreover, in assay [8], the IC50 is 2.44 µM (active).

Turning to `O=C(CSc1nc2cccc(I)c2c(=O)n1-c1ccccc1)Nc1ccc2c(c1)CCC2`, the CC50 in [11] was > 200 µM (active); in [12] it was > 133 µM (active).

`O=C(c1cccc(-n2sc3ccccc3c2=O)c1)N1CCCCC1`: the IC50 in assay [13] was 13.6 µM (active).

`O=C(Nc1nnc(-c2ccco2)s1)C1CCN(S(=O)(=O)c2ccc(Cl)cc2)CC1`: the IC50 in [14] is > 50 µM (not active). The EC50 was 56.6 µM (inactive) in assay [15], > 79.4 µM (not active) in assay [16] and 31.4 µM (not active) in [17].

As to `C/C(=N\NC(=O)c1ccc(F)cc1)c1ccccn1`, in [18], the AC50 was 0.523 µM (active). The IC50 in assay [19] was 3 µM (active); in [20], 1.96 µM (active); in assay [22], > 25 µM (active); in [26], 0.54 µM (active). The EC50 in assay [6] was 3.53 µM (active); in assay [7], 1.98 µM (active); in assay [21] it was > 40 µM (inactive); in assay [9], 5.06 µM (active); in assay [23], 0.475 µM (active); in assay [10] it was 0.844 µM (inconclusive). Also, the CC50 in assay [24] was 2.28 µM (active); in [25] it was 2.98 µM (active).

With `CC(=N)/C(C#N)=C(/O)CSc1nnc(Cc2ccccc2F)n1N`, the IC50 is > 50 µM (not active) in assay [27] and 13.6 µM (active) in [28].

For the origin of these results see ChEMBL document CHEMBL1201862, “PubChem BioAssay data set” (2004).
